Data as given in patent US20100040568A1, “Steroidal compounds as melanogenesis modifiers and uses thereof” (SkinMedica, Inc., priority 2008, published 2010).
“Also recorded” adds a separate entry of the source.

Key:
tyrosinase = target: T1, tyrosinase (Mus musculus, UniProt P11344); assay: Tyrosinase activity assay on melan-a cell lysates; format: biochemical, murine; settings: for direct inhibition of tyrosinase enzymatic activity: melan-a cell lysates (10 μg) pre-incubated with conessine 10 μM for 30 minutes
T1 construct: endogenous in cells; host or cells: melan-a cells (murine melanocytes), cell lysate
T1 sequence (P11344 19-533): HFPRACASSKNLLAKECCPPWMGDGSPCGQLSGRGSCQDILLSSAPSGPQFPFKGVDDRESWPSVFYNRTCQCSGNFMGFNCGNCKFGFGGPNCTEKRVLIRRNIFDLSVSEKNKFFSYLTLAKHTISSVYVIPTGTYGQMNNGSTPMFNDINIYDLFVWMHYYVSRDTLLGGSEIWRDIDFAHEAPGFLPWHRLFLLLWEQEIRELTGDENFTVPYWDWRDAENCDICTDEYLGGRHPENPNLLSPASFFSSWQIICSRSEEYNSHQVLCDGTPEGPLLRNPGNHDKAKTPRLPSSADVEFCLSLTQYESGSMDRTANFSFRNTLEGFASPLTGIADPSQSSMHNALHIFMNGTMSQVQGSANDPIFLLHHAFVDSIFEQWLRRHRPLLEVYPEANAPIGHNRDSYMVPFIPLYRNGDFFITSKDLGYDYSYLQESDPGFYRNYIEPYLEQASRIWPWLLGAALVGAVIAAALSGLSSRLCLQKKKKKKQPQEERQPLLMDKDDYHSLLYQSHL
Method: The effect of conessine on tyrosinase activity was studied in vitro using melan-a cell lysates.
In one example, melan-a cell lysates (10 μg) were pre-incubated with either diluent, conessine (10 μM) or phenylthiourea (PTU, 300 μM, a known tyrosinase inhibitor) for 30 minutes at room temperature. Tyrosinase activity assay was performed in triplicate on melan-a cell lysates as previously described (Orlow et al. 1990).

[1] = tested on: Asian skin equivalent (MEL-A); assay: MelanoDerm pigmentation assay, Asian skin equivalent; format: cell-based, human
Source text: (§1) MelanoDerm™, made by MatTek Corp., is a viable reconstituted three-dimensional human skin equivalent containing normal melanocytes and keratinocytes that are derived from African-American (MEL-B), Asian (MEL-A) or Caucasian (MEL-C) donors. Both MEL-A and MEL-B tissues were used in the current study, and they were maintained in the NMM-113 medium as recommended by the manufacturer.
Tissues were taken out on Days 13 and 16 for the various assays. 30% ethanol: 70% propylene glycol was used as a negative control and the well-known pigmentation inhibitor, arbutin (at concentration of 3 mg/ml), was used as a positive control.
(§2) The experiments were repeated twice on both MEL-A and MEL-B tissues from different lots to make sure that the results are reproducible (study 1 or 2). For each experiment, six tissues were treated with conessine, and six were treated with […] (30% ethanol: 70% PEG) or arbutin if applicable. For MEL-B, on day 10, three tissues under each treatment condition were taken out, and one was used for histological studies and the other two were used for the melanin assay. The same protocol was followed with the MEL-B samples after 13 days' treatment and MEL-A after either 13 or 16 days' treatments.
(§3) Procedure 1: the effects of conessine on melanin synthesis in MEL-A or B were evaluated by light microscopy (views from the top surface of the tissue). Procedure 2: the distribution of melanin in the treated-MEL-A or B was accessed by image analysis using Fontana-Masson stained histological sections (views from the side of the tissue).
(§4) MelanoDerm™, made by MatTek Corp., is a viable reconstituted three-dimensional human skin equivalent containing normal melanocytes and keratinocytes that are derived from African-American (MEL-B), Asian (MEL-A) or Caucasian (MEL-C) donors. It has human skin-like structure and undergoes progressive tissue darkening over the course of 2-3 weeks. MelanoDerm™ provides a useful in vitro means for evaluation of agents that modulate pigmentation. Human skin equivalent models such as MelanoDerm™ provide an alternative to clinical and animal testing for evaluating the effects of putative bioactive compounds on mammalian pigmentation. MelanoDerm™ is considered a more physiologically relevant model than melanocytes alone or melanocyte-keratinocyte co-cultures. Both MEL-A and MEL-B tissues were used in the current study, and they were maintained in the NMM-113 medium as recommended by the manufacturer. In this model, substantial accumulation of newly synthesized melanin occurs over a two to three week period.
(§5) Conessine and Licorice extract were dissolved in 30% ethanol: 70% propylene glycol (PEG) to a final concentration of 0.036% (0.36 mg/ml). A 25 μl aliquot of each compound was applied topically to the Asian MelanoDerm™ tissue (MEL-A) on Days 0, 1, 3, 6, 8, 10 and 13. The MelanoDerm™ tissues were fed every other day with 5 ml fresh NMM-113. Prior to each application, the tissues were washed with 1 ml PBS to remove any residual test compound. Tissues were fixed on Days 13 and 16 for microscopic analysis and histological evaluation. In addition, duplicate tissues were frozen on Days 13 and 16 for melanin assay. 30% ethanol: 70% PEG was used as negative control. Cell viability was measured in accordance with the manufacturer's instructions using the MTT assay kit (MatTek Corp., Ashland, Mass. 01721). One MEL-A tissue from each condition was harvested on day 2 and 7, and MTT assay was performed. Similar experiments were performed on MEL-B.
Quantitative melanin assay was performed on the treated MEL-A tissues.

[2] = tested on: African-American skin equivalent (MEL-B); assay: MelanoDerm pigmentation assay, African-American skin equivalent; format: cell-based, human
Method: as §1
Conessine (from Sigma) was dissolved in 30% ethanol: 70% propylene glycol to a final concentration of 1.0 mM (equal to 356.6 μg/ml), and this was maintained constant and used on all samples tested. A 25 μl of its aliquot was applied topically to the MelanoDerm™ tissue (MEL-B) on Days 0, 1, 3, 6, 8 and 10. The MelanoDerm™ tissues were fed every other day with 5 ml fresh NMM-113. Prior to each application, the tissues were washed with 1 ml PBS to remove any residual test compound. Tissues were fixed on Days 10 and 13 for microscopic analysis and histological evaluation. In addition, duplicate tissues were frozen on Days 10 and 13 for the melanin assay.
as §2, §3, §4, §5

[3] = tested on: Microphthalmia transcription factor (MITF); assay: Level of microphthalmia transcription factor in melan-a cells; format: cell-based, murine
Method: Melan-a cells were incubated with various concentrations of conessine for 72 hours. Cell lysates were prepared and separated by 7.5% sodium dodecyl sulfate-polyacrylamide gel and transferred to Immobilon-P membranes. Tyrosinase gene family proteins were detected with antibodies against each protein. […] Microphthalmia transcription factor (MITF) is a transcription factor that regulates the expression of tyrosinase gene family. […] Thus, increased levels of tyrosinase gene family proteins with conessine treatment are not due to increased MITF expression in melan-a cells.

[4] = 0.036% topical, day 13, 8 sections
[5] = arbutin 3 mg/ml, conessine and licorice 0.36 mg/ml, extract 1:50

`CC1C2CCC3C4CC=C5CC(N(C)C)CCC5(C)C4CCC32CN1C` (centres unmarked) [Compound 1, Conessine] was tested, and the “tyrosinase activity of lysates of pre-treated cells” value (tyrosinase; cells pre-incubated with conessine for 72 hrs before harvesting) was “No obvious difference in tyrosinase activity”, the “direct inhibition of tyrosinase enzymatic activity” value (tyrosinase; listed as Conessine) was “did not directly inhibit tyrosinase activity” and the “direct inhibition of tyrosinase enzymatic activity” value (tyrosinase; listed as conessine) was “does not directly inhibit tyrosinase enzymatic activity”. For the same compound, the “decreased melanin content (quantitative melanin assay)” value ([1]; 0.036% topical, both 13 and 16 days, compared to vehicle-treated) was 30-40%, the “melanin content compared to the vehicle-treated tissues (Fontana-Masson sections, quantitative analysis)” value [1, 4] was 49.90% and the “melanin content compared to the vehicle-treated tissues (Fontana-Masson sections, quantitative analysis)” value ([1]; 0.036% topical, day 16, 8 sections) was 42.31%. For the same compound, the “effectiveness as depigmenting agent (comparison)” value [1, 5] was “more effective than either Licorice extract or arbutin”, the “pigmentation by light microscopy” value ([1]; conessine 0.036% (0.36 mg/ml), extract diluted 1:50, 25 μl topical, days 13 and 16) was “strikingly decreased; also recorded: becomes lighter” and the “melanin content by Fontana-Masson staining” value ([1]; conessine and licorice 0.36 mg/ml, extract diluted 1:50, 25 μl topical, days 13 and 16) was “significant decrease in the relative melanin content”. The “decrease of melanin content (Fontana-Masson staining, image analysis)” value ([2]; 1.0 mM topical, days 10 and 13, compared with control-treated) was 50-60%, the “colour by light microscopy” value ([2]; 0.036% topical) was “considerable decrease in the color of MEL-B” and the “decrease of melanin content (quantitative melanin assay)” value ([2]; 0.036% topical, 10 or 13 days) was “about 30%”. For the same compound, the “melanin content compared to the vehicle-treated tissues (Fontana-Masson sections, quantitative analysis)” value ([2]; 0.036% topical, day 10, 8 sections) was 73.61%, the “melanin content compared to the vehicle-treated tissues (Fontana-Masson sections, quantitative analysis)” value [2, 4] was 62.43% and the “effectiveness as depigmenting agent (comparison)” value [2, 5] was “more effective than either Licorice extract or arbutin”. The “melanin content by Fontana-Masson staining” value ([2]; conessine 0.36 mg/ml, extract diluted 1:50, 25 μl topical, days 10 and 13) was “decreases significantly” and the “level of MITF” value [3] was “no notable effect”.
